Read-outs that look alike come from different tables or passages of the source.
How the values were obtained:
[1] = tested on: pERK; experiment: pERK levels in PMA-stimulated PBMCs by flow cytometry; type: in vivo, human
Procedure: MIC-1 protein concentrations were measured in plasma samples using an analytically validated enzyme-linked immunosorbent assay (Quantikine® Human GDF-15 immunoassay). pERK levels were determined by evaluating median value changes in response to ex vivo stimulation with or without phorbol myristate acetate (PMA) over time in whole-blood samples (CD 45^+ and lymphocyte populations) by flow cytometry (BD FACSCanto™ II instrument). Stimulated pERK levels were calculated as percentage (PMA-dimethylsulphoxide [DMSO])/DMSO).

[2] = Pharmacokinetics of pimasertib (plasma concentrations) in combination; type: in vivo, human; conditions: for AUC(0-t) / Cmax / half-life / Tmax: human, plasma, oral; for AUC(0-t): read-out: Pimasertib AUC0–12, mean ± SD; for Cmax: read-out: Pimasertib Cmax, mean ± SD; for half-life: read-out: Pimasertib t1/2 (converted); for Tmax: read-out: Pimasertib tmax, median (range)
Description: (§1) Blood samples were collected on Days 1 (for pimasertib only), 2, 3, 8 and 15 of Cycle 1, on Days 1 and 2 of Cycle 2, and on Day 1 of Cycles 3 and 4, to determine the whole-blood and plasma concentrations of SAR405838 and pimasertib, respectively.

[3] = Pharmacokinetics of SAR405838 (whole-blood concentrations) in combination; type: in vivo, human; conditions: SAR405838 and pimasertib administered in combination
Description: as §1

[4] = Safety assessments: adverse events (NCI-CTCAE v4.03), laboratory abnormalities; type: in vivo, human; conditions: of 26 treated patients, in combination
Procedure: Safety was assessed by the evaluation of AEs, DLTs, changes in vital signs, ECOG PS, physical examinations,12-lead electrocardiograms, determination of LVEF, ophthalmological examinations and clinical laboratory tests (including haematology, coagulation, blood chemistry and urinalysis).

[5] = set-up: method as in doi:10.1016/S0959-8049(12)72401-2; conditions: cited from earlier work
[6] = DL1 SAR405838 200 mg QD + pimasertib 45 mg BID, C1D2
[7] = DL1 SAR405838 200 mg QD + pimasertib 45 mg BID, C2D1
[8] = DL2a SAR405838 200 mg QD + pimasertib 60 mg QD, C1D1
[9] = DL2a SAR405838 200 mg QD + pimasertib 60 mg QD, C1D2
[10] = DL2b SAR405838 300 mg QD + pimasertib 45 mg BID, C1D1
[11] = DL2b SAR405838 300 mg QD + pimasertib 45 mg BID, C1D2
[12] = DL2b SAR405838 300 mg QD + pimasertib 45 mg BID, C2D1
[13] = DL3a SAR405838 300 mg QD + pimasertib 60 mg QD, C1D1
[14] = DL3a SAR405838 300 mg QD + pimasertib 60 mg QD, C1D2
[15] = DL3a SAR405838 300 mg QD + pimasertib 60 mg QD, C2D1
[16] = DL1 SAR405838 200 mg QD + pimasertib 45 mg BID, C1D1
[17] = DL2a SAR405838 200 mg QD + pimasertib 60 mg QD, C2D1

For `O=C(NC[C@H](O)CO)c1ccncc1Nc1ccc(I)cc1F` [pimasertib], the “Time pERK inhibition was maintained” value [1] was 4 h, the pERK inhibition ([1]; C1D1, C1D2 and C2D1, at or around tmax of pimasertib, at most DLs) was no less than 80% and the “Pimasertib tmax, median (range)” value [2, 6] was 1.5 [0.5–2] (7) h. For the same compound, the “Pimasertib tmax, median (range)” value [2, 7] was 1.5 [0.5–1.5] (6) h, the “Pimasertib AUC0–12, mean ± SD” value [2, 8] was 1120 ± 410 (4; 37) ng.h/mL and the “Pimasertib tmax, median (range)” value [2, 8] was 1.5 [0.5–1.5] (4) h. For the same compound, the “Pimasertib AUC0–12, mean ± SD” value [2, 9] was 1130 ± 422 (4; 37) ng.h/mL, the “Pimasertib tmax, median (range)” value [2, 10] was 1.5 [0.5–1.5] (7) h and the “Pimasertib tmax, median (range)” value [2, 11] was 1.5 [1.5–2] (7) h. For the same compound, the “Pimasertib tmax, median (range)” value [2, 12] was 1.5 [0.5–2] (6) h, the “Pimasertib t1/2” value [2, 13] was 5.25 ± 1.83 (7; 35) h and the “Pimasertib tmax, median (range)” value [2, 14] was 1.5 [0.5-2] (7) h. The “Pimasertib tmax, median (range)” value [2, 15] was 1.5 [0.5–1.5] (5) h, the “Exposure change with dose increase (33%)” value ([2]; between DL1/DL2b (pimasertib 45 mg BID) and DL2a/DL3a (pimasertib 60 mg BID)) was “resulted in pimasertib exposure increase” and the AUC(0-t) [2, 16] was 755 ± 382 ng·h/mL. For the same compound, the Cmax [2, 16] was 218 ± 108 ng/mL, the half-life [2, 16] was 4.76 ± 1.17 h and the Tmax [2, 16] was 0.5 h. For the same compound, the AUC(0-t) [2, 6] was 689 ± 324 ng·h/mL, the Cmax [2, 6] was 200 ± 102 ng/mL and the AUC(0-t) [2, 7] was 862 ± 350 ng·h/mL. It also gave a Cmax [2, 7] of 226 ± 70.6 ng/mL, a Cmax [2, 8] of 301 ± 69.9 ng/mL and a half-life [2, 8] of 5.38 ± 0.276 h. It also gave a Cmax [2, 9] of 303 ± 134 ng/mL, a Tmax [2, 9] of 1 h and an AUC(0-t) [2, 17] of 1040 ± 504 ng·h/mL. It also gave a Cmax [2, 17] of 269 ± 134 ng/mL, an AUC(0-t) [2, 10] of 779 ± 594 ng·h/mL and a Cmax [2, 10] of 184 ± 109 ng/mL. For the same compound, the half-life [2, 10] was 4.71 ± 1.39 h, the AUC(0-t) [2, 11] was 684 ± 367 ng·h/mL and the Cmax [2, 11] was 182 ± 110 ng/mL. It also gave an AUC(0-t) [2, 12] of 532 ± 166 ng·h/mL, a Cmax [2, 12] of 147 ± 93.8 ng/mL and an AUC(0-t) [2, 13] of 935 ± 469 ng·h/mL. For the same compound, the Cmax [2, 13] was 221 ± 98.3 ng/mL, the Tmax [2, 13] was 1 h and the AUC(0-t) [2, 14] was 917 ± 390 ng·h/mL. For the same compound, the Cmax [2, 14] was 200 ± 84.4 ng/mL, the AUC(0-t) [2, 15] was 765 ± 314 ng·h/mL and the Cmax [2, 15] was 243 ± 65.4 ng/mL. For the same compound, the “PK in combination compared with PK as monotherapy” value [3] was “similar”, the “Patients with dose modification, reduction or omission” value [4] was 18 patients and the “Recommended phase II dose, monotherapy” value ([5]; BID) was 60 mg. For the same compound, the “MTD, monotherapy, QD regimen” value ([5]; once daily) was 90 mg, the “DLTs, monotherapy” value ([5]; phase I dose-escalation trial) was “skin rash, acneiform dermatitis, ocular events and stomatitis” and the “MTD, monotherapy, BID regimen” value ([5]; twice daily) was 60 mg.

Reference: PMC6354023, “A phase I study of the HDM2 antagonist SAR405838 combined with the MEK inhibitor pimasertib in patients with advanced solid tumours” (British Journal of Cancer, 2018)
